Drawing on patent US10130633B2, “Compounds” (BAYER PHARMA AKTIENGESELLSCHAFT, priority 2013, dated 2018), this text covers IC50 for 27 compounds.

What is called IC50 is the midpoint of a concentration-inhibition curve. A lower IC50 goes with higher potency.

The subject of assay [1] is HCT116 FOP control reporter cell line. Put plainly: HCT116 FOPFlash control reporter assay (FOP control vector, non-functional TCF elements). To be noted: HCT116 FOP control reporter cells, 36 hours incubation, luciferase expression. Type of assay: cell-based. From the text: In a parallel approach, HCT116 cells were cotransfected with the FOP control vector and pcDNA3. The FOP vector is identical to the TOP construct, but it contains instead of functional TCF elements a randomized, non-functional sequence. For this transfection a stable transfected cell line was generated as well.

Assay [2] relates to constitutive active colorectal cancer cell (CRC) Wnt pathway. The assay can be described thus: HCT116 TOPFlash cellular reporter assay (Super TopFlash luciferase), constitutive active Wnt pathway. The class given is cell-based. Particulars: HCT116 TOP reporter cells, 36 hours incubation, luciferase expression. The procedure:
In order to discover and characterize small molecules which inhibit the constitutive active colorectal cancer cell (CRC) Wnt pathway, a cellular reporter assay was employed. […] Stable transfectants were generated by cotransfection with pcDNA3 and selection of stable transfected cells with 1 mg/ml G418.
(A reporter such as luciferase makes a cellular process visible.)

Structures can show the parent of a compound that is named as a salt.

Turning to `O=C(Nc1ccc([N+](=O)[O-])cc1Cl)c1cc(Cl)ccc1O` [Ref., niclosamide, reference compound], the IC50 was 3.1 µM in assay [1] (Homo sapiens, HCT-116, 36 h) and 1.38 µM in assay [2] (Homo sapiens, HCT-116, 36 h). For `COc1ccc(NC(=O)c2nnc(-c3ccccc3)s2)cc1NC(=O)CN1CCOCC1` [Example 130, N-{4-methoxy-3-[(morpholin-4-ylacetyl)amino]phenyl}-5-phenyl-1,3,4-thiadiazole-2-carboxamide], in that order: ≥ 50 µM and 0.318 µM. The corresponding values for `C[C@@H]1CN(C)CCN1CC(=O)Nc1cc(C(=O)Nc2ccc(-c3ccccc3F)nc2)ccc1OC(F)(F)F` [Example 161, 3-({[(2R)-2,4-dimethylpiperazin-1-yl]acetyl}amino)-N-[6-(2-fluorophenyl)pyridin-3-yl]-4-(trifluoromethoxy)benzamide] are 10 µM and 0.325 µM. In the case of `O=C(CN1CCOCC1)Nc1cc(NC(=O)c2cnc(-c3ccccc3)s2)ccc1OC(F)(F)F` [Example 252, N-{3-[(morpholin-4-ylacetyl)amino]-4-(trifluoromethoxy)phenyl}-2-phenyl-1,3-thiazole-5-carboxamide], the IC50 was ≥ 50 µM in assay [1] (Homo sapiens, HCT-116, 36 h) and 2.3 µM in assay [2] (Homo sapiens, HCT-116, 36 h). The corresponding values for `Cc1ccccc1-c1nnc(NC(=O)c2ccc(OC(F)F)c(NC(=O)CN3CCN(C)CC3)c2)s1` [Example 175, 4-(difluoromethoxy)-N-[5-(2-methylphenyl)-1,3,4-thiadiazol-2-yl]-3-{[(4-methylpiperazin-1-yl)acetyl]amino}benzamide] are 7.1 µM and 0.215 µM. For `COCCN(C)CC(=O)Nc1cc(C(=O)Nc2nnc(-c3ccccc3)s2)ccc1OC(F)(F)F` [Example 85, 3-{[N-(2-methoxyethyl)-N-methylglycyl]amino}-N-(5-phenyl-1,3,4-thiadiazol-2-yl)-4-(trifluoromethoxy)benzamide], in that order: ≥ 50 µM and 0.15 µM. The corresponding values for `CC1CN(C)CCN1CC(=O)Nc1cc(C(=O)Nc2nnc(-c3ccccc3)s2)ccc1OC(F)(F)F` (stereo not shown) [Example 167, 3-{[(2,4-dimethylpiperazin-1-yl)acetyl]amino}-N-(5-phenyl-1,3,4-thiadiazol-2-yl)-4-(trifluoromethoxy)benzamide] are ≥ 50 µM and 0.685 µM. As to `CC(C(=O)Nc1cc(C(=O)Nc2ccc(-c3ccc(O)cc3)nc2)ccc1OC(F)(F)F)N1CCOCC1` (stereo not shown) [Example 195, N-[6-(4-hydroxyphenyl)pyridin-3-yl]-3-{[2-(morpholin-4-yl)propanoyl]amino}-4-(trifluoromethoxy)benzamide], the IC50 is ≥ 50 µM in assay [1] (Homo sapiens, HCT-116, 36 h) and 0.222 µM in assay [2] (Homo sapiens, HCT-116, 36 h). Take `CS(=O)(=O)Cc1ccc(C(=O)Nc2nnc(-c3ccccc3)s2)cc1NC(=O)CN1CCOCC1` [Example 235, 4-[(methylsulfonyl)methyl]-3-[(morpholin-4-ylacetyl)amino]-N-(5-phenyl-1,3,4-thiadiazol-2-yl)benzamide]: the IC50 in assay [1] (Homo sapiens, HCT-116, 36 h) is ≥ 50 µM; in assay [2] (Homo sapiens, HCT-116, 36 h) it was 1.31 µM. As for `CC(C(=O)Nc1cc(C(=O)Nc2ccc(-c3ccccc3F)nc2)ccc1C(F)(F)F)N1CCOCC1` (stereo not shown) [Example 207, N-[6-(2-fluorophenyl)pyridin-3-yl]-3-{[2-(morpholin-4-yl)propanoyl]amino}-4-(trifluoromethyl)benzamide], the IC50 in assay [1] stood at 8.55 µM; in assay [2], 0.153 µM. For `CC(C(=O)Nc1cc(NC(=O)c2ccc(-c3cc(F)cc(F)c3)nc2)ccc1OC(F)(F)F)N1CC2CCC(C1)O2` (stereo not shown) [Example 186, 6-(3,5-difluorophenyl)-N-[3-{[2-(8-oxa-3-azabicyclo[3.2.1]oct-3-yl)propanoyl]amino}-4-(trifluoromethoxy)phenyl] nicotinamide], the IC50 in assay [1] stood at 5.4 µM; in assay [2], 0.0955 µM. In the case of `CN1CCN(CC(=O)Nc2cc(C(=O)Nc3nnc(-c4ccccc4F)s3)ccc2OC(F)(F)F)CC1` [Example 150, N-[5-(2-fluorophenyl)-1,3,4-thiadiazol-2-yl]-3-{[(4-methylpiperazin-1-yl)acetyl]amino}-4-(trifluoromethoxy)benzamide], the half-maximal inhibitory concentration (IC50) in assay [1] (Homo sapiens, HCT-116, 36 h) was ≥ 50 µM; in assay [2] (Homo sapiens, HCT-116, 36 h) it was 0.076 µM. The corresponding values for `Cc1cccc(-c2nnc(NC(=O)c3ccc(OC(F)(F)F)c(NC(=O)CN4CCOCC4)c3)s2)c1` [Example 96, N-[5-(3-methylphenyl)-1,3,4-thiadiazol-2-yl]-3-[(morpholin-4-ylacetyl)amino]-4-(trifluoromethoxy)benzamide] are ≥ 50 µM and 0.855 µM. The corresponding values for `CN1CCN(CC(=O)Nc2cc(C(=O)Nc3nnc(-c4ccc(F)cc4)s3)ccc2OC(F)(F)F)CC1` [Example 149, N-[5-(4-fluorophenyl)-1,3,4-thiadiazol-2-yl]-3-{[(4-methylpiperazin-1-yl)acetyl]amino}-4-(trifluoromethoxy)benzamide] are 47.5 µM and 0.704 µM. Consider `CN1CCN(C2(C(=O)Nc3cc(C(=O)Nc4nnc(-c5ccccc5)s4)ccc3OC(F)(F)F)CC2)CC1` [Example 52, 3-({[1-(4-methylpiperazin-1-yl)cyclopropyl]carbonyl}amino)-N-(5-phenyl-1,3,4-thiadiazol-2-yl)-4-(trifluoromethoxy)benzamide], for which the IC50 in assay [1] (Homo sapiens, HCT-116, 36 h) is ≥ 50 µM; in assay [2] (Homo sapiens, HCT-116, 36 h), 0.0265 µM. For `O=C(CN1CCOCC1)Nc1cc(C(=O)Nc2cnc(-c3ccccc3)s2)ccc1OC(F)(F)F` [Example 122, 3-[(morpholin-4-ylacetyl)amino]-N-(2-phenyl-1,3-thiazol-5-yl)-4-(trifluoromethoxy)benzamide], in that order: ≥ 50 µM and 0.202 µM. For `CN1CCN(C2(C(=O)Nc3cc(C(=O)Nc4nnc(-c5ccccc5)s4)ccc3OC(F)F)CC2)CC1` [Example 39, 4-(difluoromethoxy)-3-({[1-(4-methylpiperazin-1-yl)cyclopropyl]carbonyl}amino)-N-(5-phenyl-1,3,4-thiadiazol-2-yl)benzamide], in that order: 32 µM and 0.0338 µM. The corresponding values for `COCCNC(=O)c1ccc(C(=O)Nc2nnc(-c3ccccc3)s2)cc1NC(=O)CN1CCN(C)CC1` [Example 155, N^1-(2-methoxyethyl)-2-{[(4-methylpiperazin-1-yl)acetyl]amino}-N^4-(5-phenyl-1,3,4-thiadiazol-2-yl)terephthalamide] are 32.5 µM and 0.592 µM. Consider `Cc1ccccc1-c1nnc(NC(=O)c2ccc(OC(F)(F)F)c(NC(=O)CN3CCN(C)CC3)c2)s1` [Example 144, N-[5-(2-methylphenyl)-1,3,4-thiadiazol-2-yl]-3-{[(4-methylpiperazin-1-yl)acetyl]amino}-4-(trifluoromethoxy)benzamide], for which the IC50 in assay [1] (Homo sapiens, HCT-116, 36 h) was ≥ 50 µM; in assay [2] (Homo sapiens, HCT-116, 36 h), 0.195 µM.

Consider `CC(C(=O)Nc1cc(NC(=O)c2ccc(-c3cc(F)cc(F)c3)nc2)ccc1OC(F)(F)F)N1C[C@@H]2C[C@H]1CO2` (relative stereo) [Example 217, 6-(3,5-difluorophenyl)-N-[3-({(2S*)-2-[(1S,4S)-2-oxa-5-azabicyclo[2.2.1]hept-5-yl]propanoyl}amino)-4-(trifluoromethoxy)phenyl] nicotinamide], for which the IC50 in assay [1] was ≥ 50 µM; in assay [2], 0.438 µM. Take `O=C(Nc1nnc(-c2ccc(F)cc2)s1)c1ccc(OC(F)(F)F)c(NC(=O)C2(N3CCOCC3)CC2)c1` [Example 90, N-[5-(4-fluorophenyl)-1,3,4-thiadiazol-2-yl]-3-({[1-(morpholin-4-yl)cyclopropyl]carbonyl}amino)-4-(trifluoromethoxy)benzamide]: the IC50 in assay [1] (Homo sapiens, HCT-116, 36 h) is ≥ 50 µM; in assay [2] (Homo sapiens, HCT-116, 36 h) it was 0.173 µM. `COc1ccc(NC(=O)c2cnc(-c3ccccc3)s2)cc1NC(=O)C(C)N1CCOCC1` (stereo not shown) [Example 107, N-(4-methoxy-3-{[2-(morpholin-4-yl)propanoyl]amino}phenyl)-2-phenyl-1,3-thiazole-5-carboxamide]: the IC50 is ≥ 50 µM in assay [1] (Homo sapiens, HCT-116, 36 h) and 0.209 µM in assay [2] (Homo sapiens, HCT-116, 36 h). The compound `CC(C(=O)Nc1cc(C(=O)Nc2nnc(-c3ccccc3)s2)ccc1CS(C)(=O)=O)N1CCN(C)CC1` (stereo not shown) [Example 230, 3-{[2-(4-methylpiperazin-1-yl)propanoyl]amino}-4-[(methylsulfonyl)methyl]-N-(5-phenyl-1,3,4-thiadiazol-2-yl)benzamide trifluoroacetate (1:1)] returned an IC50 in assay [2] (Homo sapiens, HCT-116, 36 h) of 0.72 µM. `C[C@@H](C(=O)Nc1cc(C(=O)Nc2ccc(-c3ccc(N)cc3)nc2)ccc1OC(F)(F)F)N1CCOCC1` (single isomer, unassigned) [Example 118, N-[6-(4-aminophenyl)pyridin-3-yl]-3-{[(2R)-2-(morpholin-4-yl)propanoyl]amino}-4-(trifluoromethoxy)benzamide or N-[6-(4-aminophenyl)pyridin-3-yl]-3-{[(2S)-2-(morpholin-4-yl)propanoyl]amino}-4-(trifluoromethoxy)benzamide]: the IC50 in assay [1] was ≥ 50 µM.

Turning to `COc1ccc(NC(=O)c2ccc(-c3ccccc3)[nH]2)cc1NC(=O)CN1CCOCC1` [Example 24, N-{4-methoxy-3-[(morpholin-4-ylacetyl)amino]phenyl}-5-phenyl-1H-pyrrole-2-carboxamide], the IC50 in assay [1] (Homo sapiens, HCT-116, 36 h) is ≥ 50 µM.

In the case of `O=C(CN1CCOCC1)Nc1cc(NC(=O)c2cc(-c3ccccc3)[nH]n2)ccc1OC(F)(F)F` [Example 124, N-{3-[(morpholin-4-ylacetyl)amino]-4-(trifluoromethoxy)phenyl}-5-phenyl-1H-pyrazole-3-carboxamide], in assay [1] (Homo sapiens, HCT-116, 36 h), the IC50 was ≥ 50 µM. For the compound `CC(C(=O)Nc1cc(C(=O)Nc2nnc(-c3ccccc3)s2)ccc1OC(F)(F)F)N1CCOCC1` (stereo not shown) [Example 242, 3-{[2-(morpholin-4-yl)propanoyl]amino}-N-(5-phenyl-1,3,4-thiadiazol-2-yl)-4-(trifluoromethoxy)benzamide], the IC50 in assay [1] was ≥ 50 µM.
